Test results as given in publication PMC11864979, “First-in-class ultralong-target-residence-time p38α inhibitors as a mitosis-targeted therapy for colorectal cancer” (Nature Cancer, 2025).
Like-named read-outs stand apart in the source and are kept apart here.

Assays:
Assay in all cases: selectivity profiling in a panel of 340 wild-type kinases (Reaction Biology Europe)
Type in all cases: binding
[1] = target: T1, 340 wild-type kinases (Homo sapiens, UniProt P07947)
T1 construct: purchased Reaction Biology Europe
T1 sequence (P07947 whole entry): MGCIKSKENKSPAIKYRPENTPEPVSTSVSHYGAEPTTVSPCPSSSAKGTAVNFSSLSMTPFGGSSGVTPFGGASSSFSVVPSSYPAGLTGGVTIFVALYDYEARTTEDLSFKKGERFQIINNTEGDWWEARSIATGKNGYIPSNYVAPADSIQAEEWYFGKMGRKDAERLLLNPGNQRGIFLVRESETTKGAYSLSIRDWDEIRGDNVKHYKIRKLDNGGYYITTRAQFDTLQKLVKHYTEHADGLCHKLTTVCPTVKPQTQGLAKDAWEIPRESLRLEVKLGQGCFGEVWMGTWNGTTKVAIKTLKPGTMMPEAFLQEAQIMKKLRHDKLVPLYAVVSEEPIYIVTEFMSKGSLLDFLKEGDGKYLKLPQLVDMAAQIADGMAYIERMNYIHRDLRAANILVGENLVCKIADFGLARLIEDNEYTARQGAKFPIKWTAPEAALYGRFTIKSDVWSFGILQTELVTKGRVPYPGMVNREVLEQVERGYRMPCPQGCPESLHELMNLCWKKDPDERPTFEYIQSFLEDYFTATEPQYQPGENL

[2] = target: T2, 340 wild-type kinases (Homo sapiens, UniProt P49841)
T2 construct: purchased Reaction Biology Europe

[3] = target: T3, 340 wild-type kinases (Homo sapiens, UniProt P49761)
T3 construct: purchased Reaction Biology Europe
T3 sequence (P49761 whole entry): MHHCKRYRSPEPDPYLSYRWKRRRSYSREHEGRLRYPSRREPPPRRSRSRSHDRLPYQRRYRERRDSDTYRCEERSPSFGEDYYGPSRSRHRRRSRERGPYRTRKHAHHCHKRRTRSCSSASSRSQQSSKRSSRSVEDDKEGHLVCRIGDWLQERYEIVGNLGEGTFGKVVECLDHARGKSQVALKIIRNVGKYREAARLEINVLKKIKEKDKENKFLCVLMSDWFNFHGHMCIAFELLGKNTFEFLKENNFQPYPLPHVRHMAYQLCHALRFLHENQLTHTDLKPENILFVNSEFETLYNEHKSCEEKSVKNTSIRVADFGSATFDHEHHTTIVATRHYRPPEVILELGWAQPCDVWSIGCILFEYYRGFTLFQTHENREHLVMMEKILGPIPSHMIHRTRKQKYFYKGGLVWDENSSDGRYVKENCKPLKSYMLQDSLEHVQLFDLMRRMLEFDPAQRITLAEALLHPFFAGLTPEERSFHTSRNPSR

[4] = target: T4, 340 wild-type kinases (Homo sapiens, UniProt Q13554)
T4 construct: purchased Reaction Biology Europe

[5] = target: T5, 340 wild-type kinases (Homo sapiens, UniProt P53355)
T5 construct: purchased Reaction Biology Europe
T5 sequence (P53355 whole entry): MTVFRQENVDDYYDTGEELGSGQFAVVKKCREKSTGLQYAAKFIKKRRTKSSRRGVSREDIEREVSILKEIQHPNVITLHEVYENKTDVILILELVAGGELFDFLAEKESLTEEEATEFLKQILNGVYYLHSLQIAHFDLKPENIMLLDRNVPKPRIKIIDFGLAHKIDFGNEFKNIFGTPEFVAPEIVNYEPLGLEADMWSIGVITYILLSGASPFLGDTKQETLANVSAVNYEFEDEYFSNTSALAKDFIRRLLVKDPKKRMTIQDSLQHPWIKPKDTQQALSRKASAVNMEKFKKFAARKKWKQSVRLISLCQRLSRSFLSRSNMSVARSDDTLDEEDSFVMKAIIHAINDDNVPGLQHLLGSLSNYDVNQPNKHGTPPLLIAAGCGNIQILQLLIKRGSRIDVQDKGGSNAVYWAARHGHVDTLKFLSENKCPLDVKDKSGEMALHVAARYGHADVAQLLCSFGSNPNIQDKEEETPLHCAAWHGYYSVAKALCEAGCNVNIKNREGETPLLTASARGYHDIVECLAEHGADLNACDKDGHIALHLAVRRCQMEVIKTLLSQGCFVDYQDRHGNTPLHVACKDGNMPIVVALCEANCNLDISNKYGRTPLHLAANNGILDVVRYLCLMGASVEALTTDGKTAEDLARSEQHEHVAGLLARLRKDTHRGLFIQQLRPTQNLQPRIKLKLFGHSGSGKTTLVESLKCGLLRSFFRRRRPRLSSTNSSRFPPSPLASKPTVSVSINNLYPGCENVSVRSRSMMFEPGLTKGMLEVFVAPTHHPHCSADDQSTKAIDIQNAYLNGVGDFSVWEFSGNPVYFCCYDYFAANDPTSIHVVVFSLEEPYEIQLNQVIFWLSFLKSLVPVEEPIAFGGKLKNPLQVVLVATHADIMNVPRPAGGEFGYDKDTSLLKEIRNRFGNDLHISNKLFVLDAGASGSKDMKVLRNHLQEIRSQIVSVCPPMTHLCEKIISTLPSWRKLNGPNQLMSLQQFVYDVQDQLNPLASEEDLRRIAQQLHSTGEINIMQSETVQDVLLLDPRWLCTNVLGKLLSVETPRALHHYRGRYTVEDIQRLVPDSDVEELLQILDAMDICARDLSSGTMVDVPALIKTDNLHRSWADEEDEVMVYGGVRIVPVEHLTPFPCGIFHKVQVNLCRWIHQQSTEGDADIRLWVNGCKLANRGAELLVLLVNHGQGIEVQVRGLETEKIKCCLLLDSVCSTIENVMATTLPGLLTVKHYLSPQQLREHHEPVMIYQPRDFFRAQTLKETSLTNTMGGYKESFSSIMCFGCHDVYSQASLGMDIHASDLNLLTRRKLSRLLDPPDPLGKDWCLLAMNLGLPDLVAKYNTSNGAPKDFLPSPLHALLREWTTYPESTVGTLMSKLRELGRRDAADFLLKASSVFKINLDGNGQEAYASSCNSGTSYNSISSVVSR

[6] = target: T6, 340 wild-type kinases (Homo sapiens, UniProt Q99986)
T6 construct: purchased Reaction Biology Europe
T6 sequence (Q99986 1-396): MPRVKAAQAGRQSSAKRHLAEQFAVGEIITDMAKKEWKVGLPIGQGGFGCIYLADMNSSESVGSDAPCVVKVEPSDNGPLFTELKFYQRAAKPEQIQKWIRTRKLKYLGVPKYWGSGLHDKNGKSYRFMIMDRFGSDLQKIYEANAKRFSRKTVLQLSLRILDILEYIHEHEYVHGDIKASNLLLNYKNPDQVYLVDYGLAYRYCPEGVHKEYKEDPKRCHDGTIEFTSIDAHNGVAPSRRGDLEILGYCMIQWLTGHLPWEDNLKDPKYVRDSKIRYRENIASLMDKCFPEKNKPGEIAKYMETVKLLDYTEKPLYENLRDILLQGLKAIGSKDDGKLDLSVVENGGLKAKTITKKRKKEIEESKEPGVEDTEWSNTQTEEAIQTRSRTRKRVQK

[7] = target: T7, 340 wild-type kinases (Homo sapiens, UniProt Q16288)
T7 construct: purchased Reaction Biology Europe
T7 sequence (Q16288 32-839): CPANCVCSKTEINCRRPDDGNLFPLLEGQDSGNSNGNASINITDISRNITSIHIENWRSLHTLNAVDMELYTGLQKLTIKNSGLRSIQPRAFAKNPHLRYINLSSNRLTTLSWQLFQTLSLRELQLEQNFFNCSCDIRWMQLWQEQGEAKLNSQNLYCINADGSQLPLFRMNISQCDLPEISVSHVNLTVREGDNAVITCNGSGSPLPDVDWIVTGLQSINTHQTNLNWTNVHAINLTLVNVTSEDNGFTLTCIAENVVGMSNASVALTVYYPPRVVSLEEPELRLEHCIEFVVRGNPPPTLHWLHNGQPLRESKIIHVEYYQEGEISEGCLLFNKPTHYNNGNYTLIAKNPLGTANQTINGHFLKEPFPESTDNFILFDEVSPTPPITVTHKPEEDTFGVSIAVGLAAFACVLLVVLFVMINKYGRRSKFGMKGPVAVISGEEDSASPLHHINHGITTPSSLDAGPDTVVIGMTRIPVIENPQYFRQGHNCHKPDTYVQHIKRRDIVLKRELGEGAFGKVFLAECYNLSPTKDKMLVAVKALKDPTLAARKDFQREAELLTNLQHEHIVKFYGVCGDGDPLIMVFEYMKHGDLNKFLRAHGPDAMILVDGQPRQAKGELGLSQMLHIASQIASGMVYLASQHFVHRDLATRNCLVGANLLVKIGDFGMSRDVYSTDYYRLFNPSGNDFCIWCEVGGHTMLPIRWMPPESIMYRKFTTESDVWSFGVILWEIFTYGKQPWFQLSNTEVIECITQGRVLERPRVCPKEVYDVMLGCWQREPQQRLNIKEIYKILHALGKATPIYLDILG

[8] = target: T8, 340 wild-type kinases (Homo sapiens, UniProt P04629)
T8 construct: purchased Reaction Biology Europe
T8 sequence (P04629 33-796): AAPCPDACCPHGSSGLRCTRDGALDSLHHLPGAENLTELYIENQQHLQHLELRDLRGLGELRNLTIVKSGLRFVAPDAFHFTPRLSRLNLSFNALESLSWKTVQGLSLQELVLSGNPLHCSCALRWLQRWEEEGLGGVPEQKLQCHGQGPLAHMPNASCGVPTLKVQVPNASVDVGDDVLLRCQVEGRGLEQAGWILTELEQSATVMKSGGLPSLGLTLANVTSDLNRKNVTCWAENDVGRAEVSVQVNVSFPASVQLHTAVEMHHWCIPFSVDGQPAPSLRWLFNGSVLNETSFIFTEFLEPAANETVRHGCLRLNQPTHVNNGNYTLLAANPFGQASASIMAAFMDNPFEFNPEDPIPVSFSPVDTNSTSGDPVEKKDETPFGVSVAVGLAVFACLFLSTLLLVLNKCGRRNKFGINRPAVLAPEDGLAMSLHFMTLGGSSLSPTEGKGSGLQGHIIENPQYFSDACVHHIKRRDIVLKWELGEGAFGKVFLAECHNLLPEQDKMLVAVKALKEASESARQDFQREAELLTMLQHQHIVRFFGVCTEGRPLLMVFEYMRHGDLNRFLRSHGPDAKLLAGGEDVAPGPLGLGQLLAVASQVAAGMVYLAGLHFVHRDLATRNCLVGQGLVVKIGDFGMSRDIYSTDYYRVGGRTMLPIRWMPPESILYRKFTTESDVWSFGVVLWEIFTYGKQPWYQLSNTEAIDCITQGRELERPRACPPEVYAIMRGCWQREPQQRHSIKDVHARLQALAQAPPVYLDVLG

[9] = target: T9, 340 wild-type kinases (Homo sapiens, UniProt P51451)
T9 construct: purchased Reaction Biology Europe
T9 sequence (P51451 whole entry): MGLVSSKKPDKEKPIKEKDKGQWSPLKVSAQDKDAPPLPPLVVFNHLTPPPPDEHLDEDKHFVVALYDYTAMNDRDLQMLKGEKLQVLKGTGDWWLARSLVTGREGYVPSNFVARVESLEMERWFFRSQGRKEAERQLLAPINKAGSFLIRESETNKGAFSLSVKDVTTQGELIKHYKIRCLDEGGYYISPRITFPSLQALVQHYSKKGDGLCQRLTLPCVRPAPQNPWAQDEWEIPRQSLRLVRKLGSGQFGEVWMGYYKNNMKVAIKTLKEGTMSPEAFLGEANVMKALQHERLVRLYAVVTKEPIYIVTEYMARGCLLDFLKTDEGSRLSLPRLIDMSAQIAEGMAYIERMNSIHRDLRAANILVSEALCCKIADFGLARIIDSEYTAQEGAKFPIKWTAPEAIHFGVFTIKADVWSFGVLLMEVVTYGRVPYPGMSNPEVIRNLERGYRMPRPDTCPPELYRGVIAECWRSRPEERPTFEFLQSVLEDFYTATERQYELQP

[10] = target: T10, 340 wild-type kinases (Homo sapiens, UniProt Q9HAZ1)
T10 construct: purchased Reaction Biology Europe
T10 sequence (Q9HAZ1 whole entry): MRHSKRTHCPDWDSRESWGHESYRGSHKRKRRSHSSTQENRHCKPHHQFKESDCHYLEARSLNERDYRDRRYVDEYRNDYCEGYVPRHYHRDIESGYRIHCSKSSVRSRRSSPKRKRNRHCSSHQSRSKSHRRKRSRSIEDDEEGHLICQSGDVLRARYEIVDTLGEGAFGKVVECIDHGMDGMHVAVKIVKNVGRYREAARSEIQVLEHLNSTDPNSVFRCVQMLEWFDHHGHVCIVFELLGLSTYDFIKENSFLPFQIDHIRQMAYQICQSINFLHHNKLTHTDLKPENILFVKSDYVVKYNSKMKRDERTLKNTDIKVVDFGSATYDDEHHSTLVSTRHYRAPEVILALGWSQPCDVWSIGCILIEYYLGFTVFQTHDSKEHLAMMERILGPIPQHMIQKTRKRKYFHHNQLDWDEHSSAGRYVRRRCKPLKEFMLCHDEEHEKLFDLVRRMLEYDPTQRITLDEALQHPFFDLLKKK

[11] = target: T11, 340 wild-type kinases (Homo sapiens, UniProt Q13164)
T11 construct: purchased Reaction Biology Europe

[12] = target: T12, 340 wild-type kinases (Homo sapiens, UniProt P51817)
T12 construct: purchased Reaction Biology Europe
T12 sequence (P51817 1-358): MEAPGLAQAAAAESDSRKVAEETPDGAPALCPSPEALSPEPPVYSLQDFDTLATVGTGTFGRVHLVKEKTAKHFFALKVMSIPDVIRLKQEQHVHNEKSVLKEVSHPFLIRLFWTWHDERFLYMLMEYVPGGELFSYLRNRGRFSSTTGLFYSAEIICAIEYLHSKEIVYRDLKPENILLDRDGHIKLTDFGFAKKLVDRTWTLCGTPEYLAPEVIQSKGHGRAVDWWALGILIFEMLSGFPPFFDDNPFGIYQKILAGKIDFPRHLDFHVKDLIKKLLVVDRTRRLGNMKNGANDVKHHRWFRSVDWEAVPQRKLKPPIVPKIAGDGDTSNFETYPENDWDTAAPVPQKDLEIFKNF

[13] = target: T13, 340 wild-type kinases (Homo sapiens, UniProt P36896)
T13 construct: purchased Reaction Biology Europe
T13 sequence (P36896 24-505): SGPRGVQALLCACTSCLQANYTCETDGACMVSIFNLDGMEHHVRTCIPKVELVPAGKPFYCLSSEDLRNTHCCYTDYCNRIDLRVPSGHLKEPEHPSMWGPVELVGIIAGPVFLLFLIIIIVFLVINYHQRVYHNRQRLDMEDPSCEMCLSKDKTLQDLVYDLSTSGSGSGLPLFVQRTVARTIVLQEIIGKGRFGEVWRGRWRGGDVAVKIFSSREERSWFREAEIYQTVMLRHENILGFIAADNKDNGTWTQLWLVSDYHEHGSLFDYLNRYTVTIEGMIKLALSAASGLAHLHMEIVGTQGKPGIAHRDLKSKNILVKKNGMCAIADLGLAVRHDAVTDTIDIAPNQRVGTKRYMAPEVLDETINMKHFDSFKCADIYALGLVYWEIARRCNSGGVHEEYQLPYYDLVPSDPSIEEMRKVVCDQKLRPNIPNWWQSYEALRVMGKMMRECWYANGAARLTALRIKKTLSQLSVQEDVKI

`CNC(=O)c1ccc2c(c1)C(=O)c1ccc(Nc3ccc(F)c(NC(=O)C4CC4)c3)cc1CC2` [Compound 2015] gave a remaining activity at 0.2 µM ([1]; 0.2 µM 2015, read-out: YES residual activity) of 102%, a remaining activity at 1 µM ([1]; 1 µM 2015, read-out: YES residual activity) of 105% and a remaining activity at 0.2 µM ([1]; YES, 0.2 µM, read-out: residual activity) of 102%. The remaining activity at 1 µM ([1]; YES, 1 µM, read-out: residual activity) was 105%, the remaining activity at 0.2 µM ([2]; 0.2 µM 2015, read-out: GSK3beta residual activity) was 98.7% and the remaining activity at 1 µM ([2]; 1 µM 2015, read-out: GSK3beta residual activity) was 86.4%. The remaining activity at 0.2 µM ([2]; GSK3beta, 0.2 µM, read-out: residual activity) was 98.7%, the remaining activity at 1 µM ([2]; GSK3beta, 1 µM, read-out: residual activity) was 86.3% and the remaining activity at 0.2 µM ([3]; 0.2 µM 2015, read-out: CLK3 residual activity) was 138%. It also gave a remaining activity at 1 µM ([3]; 1 µM 2015, read-out: CLK3 residual activity) of 133%, a remaining activity at 0.2 µM ([3]; CLK3, 0.2 µM, read-out: residual activity) of 138% and a remaining activity at 1 µM ([3]; CLK3, 1 µM, read-out: residual activity) of 133%. The remaining activity at 0.2 µM ([4]; 0.2 µM 2015, read-out: CAMK2B residual activity) was 112%, the remaining activity at 1 µM ([4]; 1 µM 2015, read-out: CAMK2B residual activity) was 89% and the remaining activity at 0.2 µM ([4]; CAMK2B, 0.2 µM, read-out: residual activity) was 112%. It also gave a remaining activity at 1 µM ([4]; CAMK2B, 1 µM, read-out: residual activity) of 89%, a remaining activity at 0.2 µM ([5]; 0.2 µM 2015, read-out: DAPK1 residual activity) of 128% and a remaining activity at 1 µM ([5]; 1 µM 2015, read-out: DAPK1 residual activity) of 135%. For the same compound, the remaining activity at 0.2 µM ([5]; DAPK1, 0.2 µM, read-out: residual activity) was 128%, the remaining activity at 1 µM ([5]; DAPK1, 1 µM, read-out: residual activity) was 135% and the remaining activity at 0.2 µM ([6]; 0.2 µM 2015, read-out: VRK1 residual activity) was 96.8%. The remaining activity at 1 µM ([6]; 1 µM 2015, read-out: VRK1 residual activity) was 87.2%, the remaining activity at 0.2 µM ([6]; VRK1, 0.2 µM, read-out: residual activity) was 96.8% and the remaining activity at 1 µM ([6]; VRK1, 1 µM, read-out: residual activity) was 87.2%. It also gave a remaining activity at 0.2 µM ([7]; 0.2 µM 2015, read-out: TRKC residual activity) of 104%, a remaining activity at 1 µM ([7]; 1 µM 2015, read-out: TRKC residual activity) of 94.3% and a remaining activity at 0.2 µM ([7]; TRKC, 0.2 µM, read-out: residual activity) of 104%. For the same compound, the remaining activity at 1 µM ([7]; TRKC, 1 µM, read-out: residual activity) was 94.3%, the remaining activity at 0.2 µM ([8]; 0.2 µM 2015, read-out: TRKA residual activity) was 109% and the remaining activity at 1 µM ([8]; 1 µM 2015, read-out: TRKA residual activity) was 96.5%. The remaining activity at 0.2 µM ([8]; TRKA, 0.2 µM, read-out: residual activity) was 109%, the remaining activity at 1 µM ([8]; TRKA, 1 µM, read-out: residual activity) was 96.5% and the remaining activity at 0.2 µM ([9]; 0.2 µM 2015, read-out: BLK residual activity) was 107%. The remaining activity at 1 µM ([9]; 1 µM 2015, read-out: BLK residual activity) was 104%, the remaining activity at 0.2 µM ([9]; BLK, 0.2 µM, read-out: residual activity) was 107% and the remaining activity at 1 µM ([9]; BLK, 1 µM, read-out: residual activity) was 104%. For the same compound, the remaining activity at 0.2 µM ([10]; 0.2 µM 2015, read-out: CLK4 residual activity) was 120%, the remaining activity at 0.2 µM ([10]; CLK4, 0.2 µM, read-out: residual activity) was 120% and the remaining activity at 1 µM ([10]; CLK4, 1 µM, read-out: residual activity) was 118%. For the same compound, the remaining activity at 0.2 µM ([11]; 0.2 µM 2015, read-out: ERK5 residual activity) was 112%, the remaining activity at 1 µM ([11]; 1 µM 2015, read-out: ERK5 residual activity) was 99% and the remaining activity at 0.2 µM ([11]; ERK5, 0.2 µM, read-out: residual activity) was 112%. The remaining activity at 1 µM ([11]; ERK5, 1 µM, read-out: residual activity) was 99%, the remaining activity at 0.2 µM ([12]; 0.2 µM 2015, read-out: PRKX residual activity) was 107% and the remaining activity at 1 µM ([12]; 1 µM 2015, read-out: PRKX residual activity) was 97.1%. The remaining activity at 0.2 µM ([12]; PRKX, 0.2 µM, read-out: residual activity) was 107%, the remaining activity at 1 µM ([12]; PRKX, 1 µM, read-out: residual activity) was 97% and the remaining activity at 0.2 µM ([13]; 0.2 µM 2015, read-out: ACVR1B residual activity) was 101%. It also gave a remaining activity at 0.2 µM ([13]; ACVR1B, 0.2 µM, read-out: residual activity) of 101% and a remaining activity at 1 µM ([13]; ACVR1B, 1 µM, read-out: residual activity) of 86.1%.
